Source: patent US9988348B1, “Synthesis and antimicrobial use of a trithiocarbonate derivative” (KING SAUD UNIVERSITY, priority 2017, dated 2018)

Test system: MCF-7 human breast cancer cell lines
Experiment: in vitro anti-cancer test
Assay type: cell-based
Details: water soluble form, 4 to 0.008 mg/mL
Description: Biological activity of compound 4 (water soluble form) as anticancer in human breast cancer was evaluated according to (Kumar et al. 2014). Roswell Park Memorial Institute (RPMI)-1640 medium (Sigma, USA) were prepared according to manufacturer's guidelines and supplemented fetal bovine serum (10%). To avoid a microbial contamination, a streptomycin and penicillin were added to RPMI-1640. Several concentrations ranging from 4 to 0.008 mg/mL of compound 4 were tested.

CCOC(=O)CSC(=S)SCC(=O)OCC [Compound 4, diethyl 2,2′-(thiocarbonylbis(sulfanediyl))diacetate]
biological activity as anticancer: no biological activity
